These are literature values, as cited in US20090269400A1, “Nanoparticulate and Controlled Release Compositions Comprising a Cephalosporin” (ELAN PHARMA INTERNATIONAL LIMITED, priority 2005, published 2009).

For the data set the following is noted: stated in words in background/summary, no method given.

The structures appear in SMILES notation. Like-named read-outs stand apart in the source and are kept apart here.

Consider `COCC1=C(C(=O)O)N2C(=O)[C@@H](NC(=O)/C(=N\OC)c3csc(N)n3)[C@H]2SC1` [cefpodoxime], for which the solubility in water result is on record as “practically insoluble in water”. Regarding `COCC1=C(C(=O)OC(C)OC(=O)OC(C)C)N2C(=O)[C@@H](NC(=O)/C(=N\OC)c3csc(N)n3)[C@H]2SC1` (mixture of isomers) [Cefpodoxime proxetil, (RS)-1(isopropoxycarbonyloxy)ethyl (+)-(6R,7R)-7-[2-(2-amino-4-thiazolyl)-2-{(Z)methoxyimino}acetamido]-3-methoxymethyl-8-oxo-5-thia-1-azabicyclo [4.2.0]oct-2-ene-2-carboxylate], the solubility in water entry was “practically insoluble in water”. The solubility in water result (listed as cefpodoxime proxetil) was “only slightly soluble in water”.
